Where a SMILES comes first, the peptide text is derived from it.
Assays:
[1] = target: T1, sweet taste receptor TAS1R2/R3 (TAS1R2) (Homo sapiens, UniProt Q7RTX0+Q8TE23); assay: calcium (Twitch2B FRET) response in reverse-transfected HEK293-Gα[…]GUST44 receptor array, flow cell; format: cell-based
T1 construct: with TAS1R3
T1 sequence (Q8TE23 20-839): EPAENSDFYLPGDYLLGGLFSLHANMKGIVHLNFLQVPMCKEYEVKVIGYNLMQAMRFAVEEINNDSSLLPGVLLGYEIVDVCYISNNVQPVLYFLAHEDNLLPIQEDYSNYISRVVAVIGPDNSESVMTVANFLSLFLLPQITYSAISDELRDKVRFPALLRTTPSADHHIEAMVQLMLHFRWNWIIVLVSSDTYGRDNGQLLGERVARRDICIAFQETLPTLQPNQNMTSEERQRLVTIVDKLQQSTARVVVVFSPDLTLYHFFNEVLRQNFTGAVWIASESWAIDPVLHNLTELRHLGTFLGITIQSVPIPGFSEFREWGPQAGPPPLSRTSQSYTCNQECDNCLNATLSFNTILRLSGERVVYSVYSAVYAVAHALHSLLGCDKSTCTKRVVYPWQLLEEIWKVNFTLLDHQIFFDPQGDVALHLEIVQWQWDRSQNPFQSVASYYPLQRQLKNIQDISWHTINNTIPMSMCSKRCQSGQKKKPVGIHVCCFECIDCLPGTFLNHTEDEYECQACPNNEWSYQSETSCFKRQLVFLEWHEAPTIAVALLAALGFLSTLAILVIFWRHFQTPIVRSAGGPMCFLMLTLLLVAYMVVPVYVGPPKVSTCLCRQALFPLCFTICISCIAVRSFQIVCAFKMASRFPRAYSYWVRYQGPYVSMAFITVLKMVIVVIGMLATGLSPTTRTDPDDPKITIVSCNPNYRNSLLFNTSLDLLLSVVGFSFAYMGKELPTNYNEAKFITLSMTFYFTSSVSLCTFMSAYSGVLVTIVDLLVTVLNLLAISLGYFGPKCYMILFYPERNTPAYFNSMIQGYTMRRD
T1 sequence (Q7RTX0 21-852): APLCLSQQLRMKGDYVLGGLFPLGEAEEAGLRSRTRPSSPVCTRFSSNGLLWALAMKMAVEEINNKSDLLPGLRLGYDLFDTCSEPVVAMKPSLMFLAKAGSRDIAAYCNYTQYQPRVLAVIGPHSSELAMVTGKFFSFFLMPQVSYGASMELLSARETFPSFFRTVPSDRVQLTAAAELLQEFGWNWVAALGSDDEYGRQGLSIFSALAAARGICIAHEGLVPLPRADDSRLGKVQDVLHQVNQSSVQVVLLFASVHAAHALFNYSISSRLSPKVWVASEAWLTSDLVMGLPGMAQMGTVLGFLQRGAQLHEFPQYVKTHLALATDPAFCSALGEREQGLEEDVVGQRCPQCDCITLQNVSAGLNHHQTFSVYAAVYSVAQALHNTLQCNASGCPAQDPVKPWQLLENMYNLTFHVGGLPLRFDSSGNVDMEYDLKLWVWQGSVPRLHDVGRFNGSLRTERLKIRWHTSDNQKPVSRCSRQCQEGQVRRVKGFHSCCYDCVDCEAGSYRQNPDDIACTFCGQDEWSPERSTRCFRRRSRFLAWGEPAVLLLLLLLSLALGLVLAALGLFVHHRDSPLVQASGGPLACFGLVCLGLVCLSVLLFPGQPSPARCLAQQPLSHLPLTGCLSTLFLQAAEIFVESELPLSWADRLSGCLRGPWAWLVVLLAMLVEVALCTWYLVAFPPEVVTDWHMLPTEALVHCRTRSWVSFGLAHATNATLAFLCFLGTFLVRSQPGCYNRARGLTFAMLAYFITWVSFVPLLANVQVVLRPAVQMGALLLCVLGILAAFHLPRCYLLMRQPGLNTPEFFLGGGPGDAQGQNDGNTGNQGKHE

TAS2R43 = target: T2, TAS2R43 (Homo sapiens, UniProt P59537); conditions: hek293 cells
T2 sequence (P59537 1-309): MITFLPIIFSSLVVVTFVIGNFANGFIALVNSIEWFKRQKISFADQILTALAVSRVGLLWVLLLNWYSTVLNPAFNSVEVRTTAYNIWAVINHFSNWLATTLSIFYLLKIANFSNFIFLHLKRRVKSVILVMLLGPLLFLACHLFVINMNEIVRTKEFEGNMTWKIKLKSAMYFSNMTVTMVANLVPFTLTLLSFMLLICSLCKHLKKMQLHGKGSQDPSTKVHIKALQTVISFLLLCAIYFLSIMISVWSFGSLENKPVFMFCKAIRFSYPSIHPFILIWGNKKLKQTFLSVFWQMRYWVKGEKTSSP

TAS2R8 = target: T3, TAS2R8 (Homo sapiens, UniProt Q9NYW2); conditions: hek293 cells
T3 sequence (Q9NYW2 1-309): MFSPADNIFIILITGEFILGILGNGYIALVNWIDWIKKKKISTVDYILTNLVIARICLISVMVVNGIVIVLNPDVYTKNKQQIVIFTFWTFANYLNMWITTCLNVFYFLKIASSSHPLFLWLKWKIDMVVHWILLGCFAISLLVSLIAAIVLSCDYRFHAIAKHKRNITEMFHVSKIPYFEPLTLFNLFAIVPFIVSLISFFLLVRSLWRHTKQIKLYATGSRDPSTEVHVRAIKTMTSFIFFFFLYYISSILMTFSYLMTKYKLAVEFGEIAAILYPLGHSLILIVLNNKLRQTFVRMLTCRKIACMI

TAS2R31 = TAS2R31 (Homo sapiens, UniProt P59538); conditions: hek293 cells
Sequence of TAS2R31 (P59538 whole entry): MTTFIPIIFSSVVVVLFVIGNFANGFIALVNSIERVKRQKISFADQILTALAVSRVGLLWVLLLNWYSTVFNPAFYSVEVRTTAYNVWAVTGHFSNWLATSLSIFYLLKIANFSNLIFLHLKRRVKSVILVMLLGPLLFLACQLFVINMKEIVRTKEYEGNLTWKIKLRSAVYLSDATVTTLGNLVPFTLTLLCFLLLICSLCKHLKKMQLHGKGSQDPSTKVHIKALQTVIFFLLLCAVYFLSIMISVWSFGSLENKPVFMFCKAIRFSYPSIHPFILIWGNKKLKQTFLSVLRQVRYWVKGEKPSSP

[2] = target: T1, sweet taste receptor TAS1R2/R3 (TAS1R2); assay: calcium (Twitch2B FRET) response in reverse-transfected HEK293-Gα[…]GUST44 receptor array, normalized against umami receptor signal; format: cell-based

## COC(=O)[C@H](Cc1ccccc1)NC(=O)[C@H](CC(=O)O)NCCCc1ccc(OC)c(O)c1 [advantame]
[1]
  EC50: ~1.5 µM

## O=S(=O)(O)NC1CCCCC1 [cyclamate]
TAS2R43
  % signal reduction: 92 % signal reduction
TAS2R8
  % signal reduction: 33 % signal reduction
TAS2R31
  % signal reduction: 48 % signal reduction

## OC[C@H]1O[C@@](CO)(O[C@H]2O[C@H](CO)[C@@H](O)[C@H](O)[C@H]2O)[C@@H](O)[C@@H]1O [sucrose]
[2]
  EC50: 35000 µM

## COC(=O)[C@H](Cc1ccccc1)NC(=O)[C@@H](N)CC(=O)O [aspartame] (H-Asp-Phe-OMe)
[1]
  EC50: 625 µM

From PMC11261611, “Tongue-on-a-Chip: Parallel Recording of Sweet and Bitter Receptor Responses to Sequential Injections of Pure and Mixed Sweeteners” (Journal of Agricultural and Food Chemistry, 2024)
